According to ChEMBL document CHEMBL4308841, “Synthesis, in vitro antiproliferative activity, and kinase inhibitory effects of pyrazole-containing diarylureas and diarylamides” (Eur J Med Chem, 2018):

Experiments:
HOP-62 = experiment: Growth inhibition of human HOP62 cells assessed as cell growth at 0.01 uM incubated for 48 hrs by sulforhodamine B assay relative to control; type: functional; conditions: HOP-62, 48 h, read-out: Activity
NCI-H322M = experiment: Growth inhibition of human NCI-H322M cells incubated for 48 hrs by sulforhodamine B assay; type: functional, cell-based
COLO 205 = experiment: Growth inhibition of human COLO205 cells assessed as cell growth at 0.01 uM incubated for 48 hrs by sulforhodamine B assay relative to control; type: functional; conditions: COLO 205, 48 h, read-out: Activity
SN12C [1] = experiment: Growth inhibition of human SN12C cells incubated for 48 hrs by sulforhodamine B assay; type: functional, cell-based
ACHN = experiment: Growth inhibition of human ACHN cells assessed as cell growth at 0.1 uM incubated for 48 hrs by sulforhodamine B assay relative to control; type: functional; conditions: read-out: Activity
RXF 393 [2] = experiment: Growth inhibition of human RXF393 cells assessed as cell growth at 100 uM incubated for 48 hrs by sulforhodamine B assay relative to control; type: functional; conditions: RXF 393, 48 h, read-out: Activity
UACC-257 = experiment: Growth inhibition of human UACC257 cells assessed as cell growth at 1 uM incubated for 48 hrs by sulforhodamine B assay relative to control; type: functional; conditions: UACC-257, 48 h, read-out: Activity
UACC-62 = experiment: Growth inhibition of human UACC62 cells assessed as cell growth at 0.1 uM incubated for 48 hrs by sulforhodamine B assay relative to control; type: functional; conditions: UACC-62, 48 h, read-out: Activity
PC-3 [3] = experiment: Growth inhibition of human PC3 cells assessed as cell growth at 0.01 uM incubated for 48 hrs by sulforhodamine B assay relative to control; type: functional; conditions: PC-3, 48 h, read-out: Activity
HL-60(TB) = experiment: Growth inhibition of human HL-60(TB) cells assessed as cell growth at 100 uM incubated for 48 hrs by sulforhodamine B assay relative to control; type: functional; conditions: HL-60, 48 h, read-out: Activity
SK-MEL-28 = experiment: Growth inhibition of human SK-MEL-28 cells assessed as cell growth at 100 uM incubated for 48 hrs by sulforhodamine B assay relative to control; type: functional; conditions: SK-MEL-28, 48 h, read-out: Activity
SK-OV-3 = experiment: Growth inhibition of human SKOV3 cells assessed as cell growth at 100 uM incubated for 48 hrs by sulforhodamine B assay relative to control; type: functional; conditions: SK-OV-3, 48 h, read-out: Activity
SK-MEL-2 [4] = experiment: Growth inhibition of human SK-MEL-2 cells assessed as cell growth at 0.01 uM incubated for 48 hrs by sulforhodamine B assay relative to control; type: functional; conditions: SK-MEL-2, 48 h, read-out: Activity
MOLT-4 [5] = experiment: Growth inhibition of human MOLT4 cells incubated for 48 hrs by sulforhodamine B assay; type: functional, cell-based; conditions: MOLT-4, 48 h
SR = experiment: Growth inhibition of human SR cells assessed as cell growth at 0.1 uM incubated for 48 hrs by sulforhodamine B assay relative to control; type: functional; conditions: read-out: Activity
HCT-116 = experiment: Growth inhibition of human HCT116 cells assessed as cell growth at 0.1 uM incubated for 48 hrs by sulforhodamine B assay relative to control; type: functional; conditions: HCT-116, 48 h, read-out: Activity
SNB-19 = experiment: Growth inhibition of human SNB19 cells assessed as cell growth at 0.1 uM incubated for 48 hrs by sulforhodamine B assay relative to control; type: functional; conditions: SNB-19, 48 h, read-out: Activity
786-0 [6] = experiment: Growth inhibition of human 786-0 cells incubated for 48 hrs by sulforhodamine B assay; type: functional, cell-based; conditions: 786-0, 48 h
SK-MEL-2 [7] = experiment: Growth inhibition of human SK-MEL-2 cells incubated for 48 hrs by sulforhodamine B assay; type: functional, cell-based; conditions: SK-MEL-2, 48 h
MOLT-4 [8] = experiment: Growth inhibition of human MOLT4 cells assessed as cell growth at 0.1 uM incubated for 48 hrs by sulforhodamine B assay relative to control; type: functional; conditions: MOLT-4, 48 h, read-out: Activity
SN12C [9] = experiment: Growth inhibition of human SN12C cells assessed as cell growth at 1 uM incubated for 48 hrs by sulforhodamine B assay relative to control; type: functional; conditions: read-out: Activity
NCI/ADR-RES = experiment: Growth inhibition of human NCI/ADR-RES cells assessed as cell growth at 100 uM incubated for 48 hrs by sulforhodamine B assay relative to control; type: functional; conditions: read-out: Activity
SF-539 = experiment: Growth inhibition of human SF539 cells assessed as cell growth at 0.01 uM incubated for 48 hrs by sulforhodamine B assay relative to control; type: functional; conditions: SF-539, 48 h, read-out: Activity
Malme-3M = experiment: Growth inhibition of human MALME-3M cells assessed as cell growth at 1 uM incubated for 48 hrs by sulforhodamine B assay relative to control; type: functional; conditions: read-out: Activity
NCI-H460 = experiment: Growth inhibition of human NCI-H460 cells assessed as cell growth at 1 uM incubated for 48 hrs by sulforhodamine B assay relative to control; type: functional; conditions: NCI-H460, 48 h, read-out: Activity
OVCAR-5 = experiment: Growth inhibition of human OVCAR5 cells incubated for 48 hrs by sulforhodamine B assay; type: functional, cell-based; conditions: OVCAR-5, 48 h
PC-3 [10] = experiment: Growth inhibition of human PC3 cells assessed as cell growth at 100 uM incubated for 48 hrs by sulforhodamine B assay relative to control; type: functional; conditions: PC-3, 48 h, read-out: Activity
786-0 [11] = experiment: Growth inhibition of human 786-0 cells assessed as cell growth at 0.01 uM incubated for 48 hrs by sulforhodamine B assay relative to control; type: functional; conditions: 786-0, 48 h, read-out: Activity
RXF 393 [12] = experiment: Growth inhibition of human RXF393 cells assessed as cell growth at 0.1 uM incubated for 48 hrs by sulforhodamine B assay relative to control; type: functional; conditions: RXF 393, 48 h, read-out: Activity
RXF 393 [13] = experiment: Growth inhibition of human RXF393 cells assessed as cell growth at 0.01 uM incubated for 48 hrs by sulforhodamine B assay relative to control; type: functional; conditions: RXF 393, 48 h, read-out: Activity
[14] = read-out: LC50 (the source's name)
[15] = read-out: pLC50 (the source's name) (converted)

## COc1cc(Cl)cc(-c2nn(-c3cccc(NC(=O)Nc4ccc(Cl)c(C(F)(F)F)c4)c3)cc2-c2ccncc2)c1
HOP-62
  growth at 0.01 µM: 100%
NCI-H322M; read-out: GI50
  GI50: 3.38 µM
NCI-H322M; [14]
  CC50: > 100 µM
NCI-H322M; read-out: TGI
  TGI: 24 µM
NCI-H322M; read-out: pGI50 (converted)
  GI50: 3.39 µM
NCI-H322M; [15]
  CC50: > 100 µM
NCI-H322M; read-out: pTGI (converted)
  TGI: 25.1 µM
COLO 205
  growth at 0.01 µM: 97%
SN12C [1]; read-out: GI50
  GI50: 1.56 µM
SN12C [1]; read-out: LC50
  LC50: > 100 µM
SN12C [1]; read-out: TGI
  TGI: 82.1 µM
SN12C [1]; read-out: pGI50 (converted)
  GI50: 1.55 µM
SN12C [1]; read-out: pLC50 (converted)
  LC50: > 100 µM
SN12C [1]; read-out: pTGI (converted)
  TGI: 8.13 µM
ACHN
  growth at 0.1 µM: 57%
RXF 393 [2]
  growth at 100 µM: -58%
UACC-257
  growth at 1 µM: 83%
UACC-62
  growth at 0.1 µM: 93%
PC-3 [3]
  growth at 0.01 µM: 94%
HL-60(TB)
  growth at 100 µM: -22%
SK-MEL-28
  growth at 100 µM: -88%
SK-OV-3
  growth at 100 µM: -39%
SK-MEL-2 [4]
  growth at 0.01 µM: 102%
MOLT-4 [5]; read-out: GI50
  GI50: 1.23 µM
MOLT-4 [5]; [14]
  CC50: > 100 µM
MOLT-4 [5]; read-out: TGI
  TGI: 45.5 µM
MOLT-4 [5]; read-out: pGI50 (converted)
  GI50: 1.23 µM
MOLT-4 [5]; [15]
  CC50: > 100 µM
MOLT-4 [5]; read-out: pTGI (converted)
  TGI: 4.68 µM
SR
  growth at 0.1 µM: 92%
HCT-116
  growth at 0.1 µM: 97%
SNB-19
  growth at 0.1 µM: 95%
786-0 [6]; read-out: GI50
  GI50: 1.59 µM
786-0 [6]; [14]
  CC50: 15.2 µM
786-0 [6]; read-out: TGI
  TGI: 42.7 µM
786-0 [6]; read-out: pGI50 (converted)
  GI50: 1.58 µM
786-0 [6]; [15]
  CC50: 15.1 µM
786-0 [6]; read-out: pTGI (converted)
  TGI: 9.77 µM
SK-MEL-2 [7]; read-out: GI50
  GI50: 1.79 µM
SK-MEL-2 [7]; [14]
  CC50: 9.59 µM
SK-MEL-2 [7]; read-out: TGI
  TGI: 42.1 µM
SK-MEL-2 [7]; read-out: pGI50 (converted)
  GI50: 1.78 µM
SK-MEL-2 [7]; [15]
  CC50: 10 µM
SK-MEL-2 [7]; read-out: pTGI (converted)
  TGI: 4.37 µM
MOLT-4 [8]
  growth at 0.1 µM: 57%
SN12C [9]
  growth at 1 µM: 63%
NCI/ADR-RES
  growth at 100 µM: -15%
SF-539
  growth at 0.01 µM: 96%
Malme-3M
  growth at 1 µM: 67%
NCI-H460
  growth at 1 µM: 43%
OVCAR-5; read-out: GI50
  GI50: 2.13 µM
OVCAR-5; [14]
  CC50: 3.01 µM
OVCAR-5; read-out: TGI
  TGI: 71.5 µM
OVCAR-5; read-out: pGI50 (converted)
  GI50: 2.14 µM
OVCAR-5; [15]
  CC50: 30.2 µM
OVCAR-5; read-out: pTGI (converted)
  TGI: 28.8 µM
PC-3 [10]
  growth at 100 µM: -15%
786-0 [11]
  growth at 0.01 µM: 96%
RXF 393 [12]
  growth at 0.1 µM: 96%
RXF 393 [13]
  growth at 0.01 µM: 97%
